Source: PMC8844914, “Structural Basis for the Peptidoglycan-Editing Activity of YfiH” (mBio, 2022)

Columns and labels:
[1] = biological target: T1, MurC (Escherichia coli, UniProt P17952); test: ligase reaction, product UDP-MurNAc-Gly by mass spectrometry; assay type: biochemical; conditions: 18 mM Gly, 1 mM UDP-MurNAc, 5 mM ATP, 20 uM MurC, 24 h; low yield
T1 construct: C-terminal 6xHis tag (pET21a), expressed in E. coli BL21(DE3)

[2] = biological target: T2, YfiH (PgeF) (Escherichia coli, UniProt P33644, C107A); test: X-ray crystal structure, […] A; assay type: binding; conditions: endogenous ligand copurified from E. coli; pH 5.4; active-site groove
T2 construct: full length, C-terminal 6xHis tag (pET21a), expressed in E. coli BL21(DE3); Met1 not seen in crystal
T2 sequence (P33644 whole entry C107A): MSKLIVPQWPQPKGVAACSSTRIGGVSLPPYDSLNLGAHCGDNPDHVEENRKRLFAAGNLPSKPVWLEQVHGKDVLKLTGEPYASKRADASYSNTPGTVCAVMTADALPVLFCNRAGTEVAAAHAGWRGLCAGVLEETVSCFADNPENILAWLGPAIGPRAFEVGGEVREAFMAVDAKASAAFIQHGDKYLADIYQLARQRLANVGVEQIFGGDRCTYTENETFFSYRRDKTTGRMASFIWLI

[3] = biological target: T3, MurD (Escherichia coli, UniProt P14900); test: ligase reaction, product by HPLC and ESI-MS; assay type: biochemical; conditions: 2 mM D-glutamate, 5 mM ATP, 10 mM MgCl2, pH 8.0, 37 C; preparative synthesis with MurC and MurD
T3 construct: C-terminal 6xHis tag (pET21a), expressed in E. coli BL21(DE3)
T3 sequence (P14900 2-438): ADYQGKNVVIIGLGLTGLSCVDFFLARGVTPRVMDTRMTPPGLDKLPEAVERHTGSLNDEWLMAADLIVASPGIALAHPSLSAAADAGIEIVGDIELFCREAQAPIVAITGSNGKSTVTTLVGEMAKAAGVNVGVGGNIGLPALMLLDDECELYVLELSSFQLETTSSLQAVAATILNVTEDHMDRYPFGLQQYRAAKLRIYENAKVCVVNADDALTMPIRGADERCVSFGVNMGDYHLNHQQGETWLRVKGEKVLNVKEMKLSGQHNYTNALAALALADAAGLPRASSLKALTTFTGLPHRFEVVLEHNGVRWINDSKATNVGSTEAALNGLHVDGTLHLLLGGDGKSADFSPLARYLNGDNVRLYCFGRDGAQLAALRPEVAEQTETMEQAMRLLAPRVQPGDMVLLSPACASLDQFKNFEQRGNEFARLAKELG

[4] = biological target: T2, YfiH (PgeF); test: X-ray crystal structure, […] A; assay type: binding; conditions: soaked into YfiH-C107A crystals; pH 5.4; active-site groove

T1 sequence (P17952 whole entry): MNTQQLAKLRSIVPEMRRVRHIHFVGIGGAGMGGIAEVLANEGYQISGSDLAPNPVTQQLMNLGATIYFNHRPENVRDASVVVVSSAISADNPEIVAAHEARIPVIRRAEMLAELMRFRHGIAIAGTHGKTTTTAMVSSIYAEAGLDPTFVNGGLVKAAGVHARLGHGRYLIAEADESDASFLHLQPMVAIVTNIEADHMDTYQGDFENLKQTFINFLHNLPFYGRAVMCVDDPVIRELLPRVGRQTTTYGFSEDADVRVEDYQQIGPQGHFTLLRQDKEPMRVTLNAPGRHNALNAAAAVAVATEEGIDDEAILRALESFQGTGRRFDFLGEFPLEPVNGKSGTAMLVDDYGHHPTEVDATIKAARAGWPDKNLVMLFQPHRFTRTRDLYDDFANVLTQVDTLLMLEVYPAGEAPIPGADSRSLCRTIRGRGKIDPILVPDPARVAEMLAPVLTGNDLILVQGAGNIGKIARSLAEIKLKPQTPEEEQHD

For `NCC(=O)O` [Gly, glycine], the “ligase reaction, product UDP-MurNAc-Gly by mass spectrometry” value [1] was “enzymatic synthesis with MurC, using glycine as a substrate”.
`CC(=O)N[C@H]1[C@@H](OP(=O)(O)OP(=O)(O)OC[C@H]2O[C@@H](n3ccc(=O)[nH]c3=O)[C@H](O)[C@@H]2O)O[C@H](CO)[C@@H](O)[C@@H]1O[C@H](C)C(=O)O` [UM, UDP-MurNAc] was tested, and the “X-ray crystal structure, 1.47 A” value [2] was “This compound was unambiguously identified as UDP-MurNAc based on its high-resolution map”.
`CC(=O)N[C@H]1[C@@H](OP(=O)(O)OP(=O)(O)OC[C@H]2O[C@@H](n3ccc(=O)[nH]c3=O)[C@H](O)[C@@H]2O)O[C@H](CO)[C@@H](O)[C@@H]1O[C@H](C)C(=O)N[C@@H](C)C(=O)O` [UMA, UDP–MurNAc–L-Ala] was tested, and the “ligase reaction, product by HPLC and ESI-MS” value [3] was “we further synthesized UDP–MurNAc–L-Ala–D-Glu (UMAE)”.
In the case of `CC(=O)N[C@H]1[C@@H](OP(=O)(O)OP(=O)(O)OC[C@H]2O[C@@H](n3ccc(=O)[nH]c3=O)[C@H](O)[C@@H]2O)O[C@H](CO)[C@@H](O)[C@@H]1O[C@H](C)C(=O)N[C@@H](CO)C(=O)O` [UMS, UDP–MurNAc–L-Ser], the “X-ray crystal structure, 1.86 A” value [4] is reported as “we obtained the crystals of YfiH bound to UDP–MurNAc–L-Ser” and the “ligase reaction, product by HPLC and ESI-MS” value [3] is reported as “UDP–MurNAc–L-Ser–D-Glu (UMSE) with recombinant MurD”.
